Paper PMC9714824, “Hexapeptides from mammalian inhibitory hormone hunt activate and inactivate nematode reproduction” (PLOS ONE, 2022)

Assays:
Caenorhabditis elegans = conditions: 1μM per day into the aqueous medium; cited from earlier work
Excerpt: As a control compound there was synthesized EPL030, having the aa sequence KLKMNGKNIEPVFT. This is a scrambling of EPL001’s sequence, based on cards drawn at random by one of us (CRM). […] The figures for fecundity were EPL001 +43 ... || Returning to EPL030, the scrambled-sequence EPL001 comparator, this has engendered perplexity by displaying the same activity as EPL001 across multiple mammalian systems. Thus, EPL030 suppressed human prostate cancer cells in vitro more than EPL001 in two laboratories and the proliferation of rat bone marrow cells in vitro in a third.

rat bone marrow cells = assay: Bone marrow cell assay, time-lapse cell counts over 24h; assay type: cell-based; conditions: EPL001, EPL030 at 6μM, EPL120 at 5μM final concentration, in words (Fig 6)
Procedure: The method has been described previously at length. Bone marrow cells, consisting of various cell types including mesenchymal stem cells and fibroblasts, were cultured from adult male rats (Rattus norvegicus, SD strain). These cells were passaged from a growing primary stock in a T75 tissue culture flask (Sarstedt) into a 48 well tissue culture plate (IWAKI), with a cell density of 1 x 10^5/ml. The cell culture media, henceforth referred to as ‘supplemented a-MEMS,’ comprised α-MEMS media supplemented with 10% FCS and 1% penicillin/streptomycin (all Life Technologies, Carlsbad, CA, US). On the day of peptide addition to the cells, the supplemented α-MEMS was gently removed and fresh supplemented α-MEMS added, with 10% test material by volume to achieve micromolar concentrations, untreated controls receiving just fresh supplemented α-MEMS. (For dose levels see legends in respective result figures) All samples were filter sterilised using a Millex-GV […] syringe filter unit (Merck, Kenilworth, NJ, USA). The cells were imaged for 24 h using an incubated Zeiss Axiovert 135M microscope with a Prior Proscan II motorised stage, at 37 °C with a 5% CO2 in air feed. Each well of the 48-well tissue culture plate was then imaged for 24h every 5 min using Metamorph software (MDS Analytical Technologies, Wokingham, UK), with each well having four fields of view. The viability and cell numbers were reviewed by analysing the images captured over the 24h period and cell counts were taken at selected time points using the Metamorph software.
Fig 6 Bone marrow cells in culture exposed to long peptides. Cells were counted over 24h after exposure to the 14mer peptide EPL001 or its scrambled-sequence control EPL030 at 6μM final concentration or to the 20mer EPL120 at 5μM final concentration, compared to peptide-untreated controls.
Fig 7 Bone marrow cells in culture exposed to hexapeptides. Cells were counted over 24h after exposure to either EPL016 (= MKPLTG, the ‘Front 6’ of the 14mer EPL001) or EPL036 (= IEPVFT, the ‘Back 6’ of EPL030, the scrambled-sequence control of EPL001) at 1μM final concentration, compared to peptide-untreated controls.

PC3 cells = assay: MTS colorimetric viable cell assay, PC3; assay type: cell-based, human; conditions: for OD below that of EPL001: PC3 time course study
Procedure, shortened: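 Cells seeded at 8,000/well, given peptides (14mer to 6mer) at 30 μM final at the outset, triplicate, buffer controls; viable cells by MTS absorbance at 492 nm after 27 h growth. Data as OD mean ± SEM, two-tailed t-test; a 14mer time course on PC3 read at 24 and 48 h.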

[1] = tested on: circulating levels of the anterior pituitary hormones LH, GH and PRL; assay: Intracerebroventricular infusion in sheep, RIA of circulating pituitary hormones; assay type: in vivo, Ovis aries; conditions: for GH, percentage difference between After and Before / LH, percentage difference between After and Before / PRL, percentage difference between After and Before: ICV 100 μg/h for 24h; for GH, After / LH, After / PRL, After: last 6h of ICV infusion, 100 μg/h for 24h, one sheep, RIA, mean +/− SEM
Procedure: A sheep study involved randomly selected Corriedale ewes (Ovis aries) of typically 5–6 years of age maintained under natural conditions at the Monash University Sheep Facility, Werribee, Victoria, Australia. EPL001 and EPL030 were subject to intracerebroventricular (ICV) infusion separately in vivo via a permanent cannula into the third ventricle of the brains of one sheep each at 100 μg/h for 24h. The zone that forms the floor of the third ventricle is that part of the hypothalamus called the median eminence. This is the anatomical interface between the brain and the anterior pituitary. Immunostaining in the ovine median eminence, in the form of axonal beading, has been reported with an anti-EPL001 antibody. The aim here was to evaluate the impact on the ovine hypothalamic-pituitary axis of infusion from above the hypothalamus. Circulating levels of the anterior pituitary hormones LH (luteinising hormone), GH (growth hormone) and PRL (prolactin) were measured by radioimmunoassay (RIA) prior to and in the closing stages of infusion. Systemic blood samples from an indwelling jugular venous cannula were taken at 10 min intervals for 6h prior to infusion (‘Before’) and over the last 6h of infusion (‘After’).

Row | Sequence | Fecundity (number of eggs), cumulative totals vs untreated controls (Caenorhabditis elegans) | Lifespan, average vs untreated controls (Caenorhabditis elegans) | Effect on bone marrow cells in culture (rat bone marrow cells) | OD below that of EPL001 (PC3 cells; 24h) | OD below that of EPL001 (PC3 cells; 48h) | GH, percentage difference between After and Before [1] | LH, percentage difference between After and Before [1] | PRL, percentage difference between After and Before [1] | GH, After [1] | LH, After [1] | PRL, After [1] | Difference in percentage terms between control and test OD means (PC3 cells; PC3, 30 μM, 27h, MTS, 492 nm, triplicate)
1 | KLKMNGKNIEPVFT [EPL030, …, scrambled EPL001 control] | −64% | +23% | pro-apoptotic | 18.9% | 51.3% | +43.8% | +7.4% | −23.8% | 7.82 ± 0.80 ng/mL | 12.89 ± 3.78 ng/mL | 107.03 ± 18.92 ng/mL | –
2 | MKPLTGKVKEFNNI [EPL001, 14mer master test peptide …; ovine provenance] | +43% | +18% | antiproliferative | – | – | +25.4% | +13.4% | −28.5% | 3.41 ± 0.63 ng/mL | 6.48 ± 0.90 ng/mL | 95.14 ± 21.62 ng/mL | −0.7%
